# Experimental data as given in patent publication US20240043400A1, “Octahydroisoquinolinyl Derivatives” (UCB Biopharma SRL, priority 2020, published 2024).
# Tests used:
# [1] = target: T1, human GABAA receptor α1β2 and γ2 subunits (Homo sapiens, UniProt P14867+P18507+P47870); assay: Automated patch clamp studies on the GABAA receptor cells; type: cell-based; conditions: 10 μM compound; 15 μM GABA; CHO-K1 cells; Table B
# T1 construct: expressed in transfected cells
# Description: CHO-K1 cells stably expressing human GABAA receptor α1β2 and γ2 subunits were used. The cells were harvested using trypsin and maintained in serum-free medium at room temperature. The cells were washed and re-suspended in extracellular solution before testing.
# Experiments on human GABAA (α1β2γ2) channels were conducted using an automated patch clamp assay (lonFlux™ HT). The external solution for recording GABAA currents was composed of sodium chloride 137 mM, potassium chloride 4 mM, calcium chloride 1.8 mM, magnesium chloride 1 mM, HEPES 10 mM, and glucose 10 mM. Both external and internal solutions were titrated with NaOH or KOH to obtain a pH of 7.35 and 7.3, respectively. The internal pipette solution contained potassium fluoride 70 mM, potassium chloride 60 mM, sodium chloride 70 mM, HEPES 5 mM, EGTA 5 mM, and Magnesium ATP 4 mM. The final concentration of vehicle used to dilute compounds was 0.33% DMSO in each well. Bicuculline (0.032 to 100 μM) was used as positive control inhibitor. GABA (15 μM) was used as agonist. All recordings were obtained from a holding potential of −60 mV.
# The compound addition sequence was the following: one addition of the EC80 concentration of GABA was added to establish baseline response. Each concentration of compound was applied for 30 seconds followed by the addition of 15 μM GABA in the presence of the compound for 2 seconds. The process was repeated with the next ascending concentration of compound. Peak inward currents in response to the GABA additions in the presence of a single concentration of compound were measured. All compound data have been normalized to the baseline peak current induced by addition of 15 μM GABA for 2 seconds.
# [2] = target: T2, dopamine D1 receptor (Homo sapiens, UniProt P21728); assay: cAMP HTRF potentiation assay (in the presence of dopamine); type: cell-based; conditions: potentiation of cAMP with [EC20] of dopamine (1.1 nM); LMtk (Ltk−) mouse fibroblast cells expressing the dopamine D1 receptor
# T2 construct: host or cells: LMtk (Ltk-) mouse fibroblast cells, kept under Geneticin
# Description: The potentiation assay measures the ability of compounds to increase the levels of cAMP produced by a low-threshold concentration of dopamine. The concentration of dopamine used ([EC20]) is designed to produce 20% stimulation compared to the maximal response (100%) seen with increasing the concentration of dopamine. To measure this potentiation we incubate increasing concentrations of the compound with the [EC20] of dopamine and measure the potentiation as increases in cAMP production. The pEC50 of a compound is the −log 10 of the concentration of the compound which produces 50% of the potentiation of the cAMP levels and the Erel is the relative efficacy, defined as the maximal % potentiation produced by the compound compared to the maximal response produced by increasing concentrations of dopamine (Erel of 1=dopamine maximum response).
# Cells were cultured at 37° C. in a humidified atmosphere of 5% CO2. Cells were grown in DMEM-F12+GlutaMAX™-1 medium (GIBCO®, Invitrogen, Merelbeke, Belgium) containing 10% fetal bovine serum (BioWhittaker®, Lonza, Verviers, Belgium), 400 μg/mL Geneticin (GIBCO®), 100 IU/mL Penicillin and 100 IU/mL Streptomycin (Pen-Strep solution, BioWhittaker®).
# The measurement of changes in intracellular cyclic adenosinemonophopshpate (cAMP) was determined using the HTRF cAMP dynamic assay kit from CisBio (Codolet, France). Using homogenous time-resolved fluoresence technology, the assay is based on competition between native cAMP produced by cells and cAMP labelled with the dye d2. The tracer binding is determined by an anti-cAMP antibody labeled with cryptate. The effects of the compound alone (agonism) was determined by performing the assay in the absence of dopamine, whilst the effect of the compound as a positive allosteric modulator (PAM) was determined in the presence of an EC20 concentration of dopamine. Cells (20,000 per well) are incubated in 384 plates for 1 h at rt in a final volume of 20 μLHBSS (Lonza, with calcium, magnesium and HEPES buffer 20 mM, pH 7.4) containing: isobutyl methylxanthine (Sigma, 0.1 mM final), varying concentrations of test compound (typically 10^−9.5 M to 10^−4.5 M) in the presence and absence of dopamine (1.1 nM final). The reaction is then terminated and the cells lysed by adding the d2 detection reagent in lysis buffer (10 μL) and the cryptate reagent in lysis buffer (10 μL) according to manufacturer's instructions. This is then incubated for a further 60 min at rt and changes in HTRF fluorescent emission ratio determined according to manufacturer's instructions using an Envision plate reader (Perkin Elmer, Zaventem, Belgium) with laser excitation. All incubations were performed in duplicate and results were compared to a concentration-effect curve to dopamine. (10^−11 M to 10^−6 M).
# Data was analyzed using Excel and PRISM (GraphPad Software) to obtain pEC50 and Erel using the 4-parameter logistic equation (DeLean et al, 1978) where Erel is the fitted maximal response of the test compound minus basal expressed as a percentage relative to that obtained with dopamine which was defined as 100%.
# [3] = target: T3, CYP3A4 (Homo sapiens, UniProt P08684); assay: In vitro assessment of CYP3A4 inhibition potential using cryopreserved human microsomes; type: in vitro ADME; conditions: human, cryopreserved human microsomes (pooled donors), probe midazolam 2.5 μM (1-hydroxymidazolam formation), 20 μM compound, human microsomes 0.25 mg/ml, Table C
# T3 construct: cryopreserved human microsomes (pooled donors); from tissue
# Description: The objective of the human microsome assay is to characterize the inhibition potential of Compound of formula (I) by measuring the CYP3A4 activities after its co-incubation with midazolam, a specific CYP3A4 substrate.
# To this aim, cryopreserved human microsomes (pooled donors) are divided on a 48 well collagen coated plate so that the final concentration is 0.25 mg/ml. The UCB compound is then added in the wells at 20 μM concentration in duplicate. After 30 min incubation, midazolam is added at 2.5 μM concentration. After 15 min, an aliquot is removed and placed into an equal volume of methanol containing internal standard. The samples are centrifuged at 2500 rpm at 4° C. for 20 min. An aliquot of supernatant is diluted with deionised water and levels of 1-hydroxymidazolam is quantified using generic LC MS/MS methods.
# The concentrations are compared to those obtained after midazolam incubation at the same concentration but without UCB compound pre-incubation. The results are expressed as % of inhibition.
# T2 sequence (P21728 whole entry): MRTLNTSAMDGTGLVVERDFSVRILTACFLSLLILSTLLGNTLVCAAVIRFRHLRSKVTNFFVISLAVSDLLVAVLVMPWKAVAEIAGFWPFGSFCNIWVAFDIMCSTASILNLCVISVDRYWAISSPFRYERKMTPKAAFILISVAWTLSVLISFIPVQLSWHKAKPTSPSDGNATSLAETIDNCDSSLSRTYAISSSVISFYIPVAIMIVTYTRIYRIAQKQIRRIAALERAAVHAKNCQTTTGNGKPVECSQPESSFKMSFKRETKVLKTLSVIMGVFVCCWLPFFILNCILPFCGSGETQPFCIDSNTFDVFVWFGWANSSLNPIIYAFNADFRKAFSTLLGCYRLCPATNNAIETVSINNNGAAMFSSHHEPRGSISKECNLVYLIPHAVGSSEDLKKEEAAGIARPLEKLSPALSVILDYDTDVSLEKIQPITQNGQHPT
# T1 sequence (P14867 28-456): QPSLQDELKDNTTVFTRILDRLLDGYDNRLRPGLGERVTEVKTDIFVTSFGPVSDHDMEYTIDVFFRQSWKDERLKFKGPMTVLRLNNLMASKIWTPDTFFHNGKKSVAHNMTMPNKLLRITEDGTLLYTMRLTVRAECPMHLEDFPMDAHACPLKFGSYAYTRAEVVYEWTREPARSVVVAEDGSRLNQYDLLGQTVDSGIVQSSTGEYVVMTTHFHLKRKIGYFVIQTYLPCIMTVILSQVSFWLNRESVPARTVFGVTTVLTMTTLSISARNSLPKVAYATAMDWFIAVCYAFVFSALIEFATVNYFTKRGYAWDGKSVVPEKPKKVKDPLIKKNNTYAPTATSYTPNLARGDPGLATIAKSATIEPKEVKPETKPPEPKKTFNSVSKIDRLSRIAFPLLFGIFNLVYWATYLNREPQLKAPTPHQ
# T1 sequence (P47870 25-512 limits assumed): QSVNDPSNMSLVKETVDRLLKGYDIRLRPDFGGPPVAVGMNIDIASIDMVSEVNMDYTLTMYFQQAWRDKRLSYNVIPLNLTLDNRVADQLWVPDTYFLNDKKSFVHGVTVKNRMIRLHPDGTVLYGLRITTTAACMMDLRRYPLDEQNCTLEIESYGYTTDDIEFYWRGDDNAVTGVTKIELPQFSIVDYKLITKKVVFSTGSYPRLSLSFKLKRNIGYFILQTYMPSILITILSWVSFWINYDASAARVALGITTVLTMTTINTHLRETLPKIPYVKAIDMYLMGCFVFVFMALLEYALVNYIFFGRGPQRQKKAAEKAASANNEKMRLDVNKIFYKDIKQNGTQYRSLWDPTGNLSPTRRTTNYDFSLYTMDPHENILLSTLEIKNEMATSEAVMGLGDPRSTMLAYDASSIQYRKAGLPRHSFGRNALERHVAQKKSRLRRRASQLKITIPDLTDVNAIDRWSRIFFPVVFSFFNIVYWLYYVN
# T1 sequence (P18507 40-475): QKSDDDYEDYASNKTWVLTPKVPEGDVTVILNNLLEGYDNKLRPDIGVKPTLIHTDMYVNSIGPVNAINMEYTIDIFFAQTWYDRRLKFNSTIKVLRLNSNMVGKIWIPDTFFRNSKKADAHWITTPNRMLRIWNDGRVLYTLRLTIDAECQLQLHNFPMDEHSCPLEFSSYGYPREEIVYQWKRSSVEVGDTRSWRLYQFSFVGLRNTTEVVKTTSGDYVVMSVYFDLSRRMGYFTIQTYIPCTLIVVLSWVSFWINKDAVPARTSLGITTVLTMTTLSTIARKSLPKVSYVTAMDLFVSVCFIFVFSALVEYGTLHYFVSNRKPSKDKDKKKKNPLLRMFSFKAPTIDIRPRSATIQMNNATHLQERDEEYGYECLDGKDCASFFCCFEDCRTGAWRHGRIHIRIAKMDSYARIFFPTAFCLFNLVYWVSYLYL
# T3 sequence (P08684 whole entry): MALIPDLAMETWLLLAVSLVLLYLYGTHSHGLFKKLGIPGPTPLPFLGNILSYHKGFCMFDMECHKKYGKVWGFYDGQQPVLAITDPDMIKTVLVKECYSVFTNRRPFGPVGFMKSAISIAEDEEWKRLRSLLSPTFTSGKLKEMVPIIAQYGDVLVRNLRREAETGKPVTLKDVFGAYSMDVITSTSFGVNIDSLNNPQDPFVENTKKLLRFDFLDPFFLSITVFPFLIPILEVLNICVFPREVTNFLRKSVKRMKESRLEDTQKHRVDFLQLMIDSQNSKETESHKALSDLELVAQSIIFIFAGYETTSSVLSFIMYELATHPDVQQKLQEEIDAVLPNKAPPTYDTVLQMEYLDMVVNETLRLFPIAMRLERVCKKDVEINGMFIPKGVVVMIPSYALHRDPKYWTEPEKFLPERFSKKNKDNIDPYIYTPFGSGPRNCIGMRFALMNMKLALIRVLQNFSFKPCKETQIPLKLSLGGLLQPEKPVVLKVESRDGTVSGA
SMILES,% GABAA inhibition [1] [%],EC50 [2] [µM],"inhibition at 15 min, 20 μM [3] [%]"
"COc1ccc(C#N)c(CC(=O)N2CC[C@@H]3[C@H](CCC[C@H]3C(C)(O)C(F)(F)F)[C@@H]2C)c1Cl (single isomer, unassigned) [Example 7-B]",1.4,0.794,–
"C[C@H]1[C@H]2CCC[C@@H]([C@H](O)C(F)(F)F)[C@@H]2CCN1C(=O)Cc1c(Cl)cnc(C(O)C(F)F)c1Cl (single isomer, unassigned) [Example 15-A]",–,0.0398,≤ 20
"C[C@H]1[C@H]2CCC[C@@H]([C@H](O)C(F)(F)F)[C@@H]2CCN1C(=O)Cc1c(Cl)cnc(C(O)C(F)F)c1Cl (single isomer, unassigned) [Example 15-B]",–,0.0251,–
"C[C@H]1[C@H]2CCC[C@@H]([C@@H](O)C(F)(F)F)[C@@H]2CCN1C(=O)Cc1c(Cl)cnc(C(C)(O)C(F)F)c1Cl (single isomer, unassigned) [Example 16-B]",–,0.0794,–
"CC(O)c1ncc(Cl)c(CC(=O)N2CC[C@H]3[C@H]([C@H](O)C(F)F)CCC[C@@H]3[C@@H]2C)c1Cl (single isomer, unassigned) [Example 17-A]",–,0.158,–
"CC(O)c1ncc(Cl)c(CC(=O)N2CC[C@H]3[C@H]([C@H](O)C(F)F)CCC[C@@H]3[C@@H]2C)c1Cl (single isomer, unassigned) [Example 17-B]",–,0.126,–
"CC(O)c1ncc(Cl)c(CC(=O)N2CC[C@@H]3[C@H](CCC[C@H]3[C@](C)(O)C(F)F)[C@@H]2C)c1Cl (single isomer, unassigned) [Example 18-A]",–,0.2,–
"CC(O)c1ncc(Cl)c(CC(=O)N2CC[C@@H]3[C@H](CCC[C@H]3[C@](C)(O)C(F)F)[C@@H]2C)c1Cl (single isomer, unassigned) [Example 18-B]",–,0.158,–
"C[C@H]1[C@H]2CCC[C@@H]([C@H](O)C(F)(F)F)[C@@H]2CCN1C(=O)Cc1c(Cl)ccc(OC(F)F)c1Cl [Example 19, 1-[(1 S,4aR,5R,8aS)-1-methyl-5-[(1 S)-2,2,2-trifluoro-1-hydroxy-ethyl]-3,4,4a,5,6,7,8,8a-octahydro-1H-isoquinolin-2-yl]-2-[2,6-dichloro-3-(difluoromethoxy)phenyl]ethanone]",–,0.2,–
"COc1ccc(C#N)c(CC(=O)N2CC[C@H]3C(C#CC(C)(C)O)CCC[C@@H]3[C@@H]2C)c1Cl (stereo partly drawn) [Example 20, 2-[2-[(1S,4aS,8aS)-5-(3-hydroxy-3-methyl-but-1-ynyl)-1-methyl-3,4,4a,5,6,7,8,8a-octahydro-1H-isoquinolin-2-yl]-2-oxo-ethyl]-3-chloro-4-methoxy-benzonitrile]",–,0.158,–
"COc1ccc(C#N)c(CC(=O)N2CC[C@@H]3[C@H](CCC[C@H]3c3cn[nH]n3)[C@@H]2C)c1Cl [Example 25, 2-[2-[(1S,4aR,5R,8aS)-1-methyl-5-(2H-triazol-4-yl)-3,4,4a,5,6,7,8,8a-octahydro-1H-isoquinolin-2-yl]-2-oxoethyl]-3-chloro-4-methoxybenzonitrile]",–,0.631,–

# Results, then the compound that gave them:
% GABAA inhibition [1] [%],EC50 [2] [µM],"inhibition at 15 min, 20 μM [3] [%]",SMILES
–,0.0794,–,"CC(O)c1ncc(Cl)c(CC(=O)N2CC[C@H]3[C@H](CCC(C)(C)O)CCC[C@@H]3[C@@H]2C)c1Cl (single isomer, unassigned) [Example 24-A]"
–,0.0398,–,"CC(O)c1ncc(Cl)c(CC(=O)N2CC[C@H]3[C@H](CCC(C)(C)O)CCC[C@@H]3[C@@H]2C)c1Cl (single isomer, unassigned) [Example 24-B]"
–,0.0501,–,"COc1ccc(C#N)c(CC(=O)N2CC[C@H]3[C@H](CCC(C)(C)O)CCC[C@@H]3[C@@H]2C)c1Cl [Example 21, 2-[2-[(1S,4aS,5S,8aS)-5-(3-hydroxy-3-methyl-butyl)-1-methyl-3,4,4a,5,6,7,8,8a-octahydro-1H-isoquinolin-2-yl]-2-oxo-ethyl]-3-chloro-4-methoxy-benzonitrile]"
–,0.2,–,"C[C@H]1[C@H]2CCC[C@@H](CCC(C)(C)O)[C@@H]2CCN1C(=O)Cc1c(Cl)ccc2c1c(Cl)nn2C [Example 22, 1-[(1S,4aS,5S,8aS)-5-(3-hydroxy-3-methyl-butyl)-1-methyl-3,4,4a,5,6,7,8,8a-octahydro-1H-isoquinolin-2-yl]-2-(3,5-dichloro-1-methyl-indazol-4-yl)ethanone]"
–,0.0501,–,"C[C@H]1[C@H]2CCC[C@@H](CCC(C)(C)O)[C@@H]2CCN1C(=O)Cc1c(Cl)cnc(CO)c1Cl [Example 23, 1-[(1S,4aS,5S,8aS)-5-(3-hydroxy-3-methyl-butyl)-1-methyl-3,4,4a,5,6,7,8,8a-octahydro-1H-isoquinolin-2-yl]-2-[3,5-dichloro-2-(hydroxymethyl)-4-pyridyl]ethanone]"
–,3.16,–,"C[C@H]1[C@H]2CCC[C@@H]([C@H](O)C(F)(F)F)[C@@H]2C[C@H](CO)N1C(=O)Cc1c(Cl)ccc2c1c(Cl)nn2C [Example 26-A, 1-[(1S,3R,4aR,5R,8aS)-3-(hydroxymethyl)-1-methyl-5-[(1S)-2,2,2-trifluoro-1-hydroxy-ethyl]-3,4,4a,5,6,7,8,8a-octahydro-1H-isoquinolin-2-yl]-2-(3,5-dichloro-1-methyl-indazol-4-yl)ethanone]"
–,0.0501,–,"C[C@H]1[C@@H]2CCC[C@H]([C@H](O)C(F)(F)F)[C@H]2C[C@H](CO)N1C(=O)Cc1c(Cl)ccc2c1c(Cl)nn2C [Example 26-B, 1-[(1S,3R,4aS,5S,8aR)-3-(hydroxymethyl)-1-methyl-5-[(1S)-2,2,2-trifluoro-1-hydroxy-ethyl]-3,4,4a,5,6,7,8,8a-octahydro-1H-isoquinolin-2-yl]-2-(3,5-dichloro-1-methyl-indazol-4-yl)ethanone]"
–,0.251,–,"C[C@H]1[C@H]2CCC[C@@H]([C@H](O)C(F)(F)F)[C@@H]2CCN1C(=O)Cc1c(Cl)ccc2c1c(Cl)cn2C [Example 27, 1-[(1 S,4aR,5R,8aS)-1-methyl-5-[(1 S)-2,2,2-trifluoro-1-hydroxy-ethyl]-3,4,4a,5,6,7,8,8a-octahydro-1H-isoquinolin-2-yl]-2-(3,5-dichloro-1-methyl-indol-4-yl)ethanone]"
